pIC50: −log10 of the molar value. Active and inactive are the calls of the source. No cut-off for these calls is given here.
How the values were obtained:
[1] = biological target: Neuraminidase (Influenza A virus (A/Puerto Rico/8/1934(H1N1)), UniProt P03468); experiment: Inhibition of Influenza A virus A/Puerto Rico/8/34 (H1N1) neuraminidase assessed as reduction in neuraminidase activity by chemiluminescence based assay
MDCK = experiment: (§1) Cytotoxicity against MDCK cells assessed as inhibition of cell growth incubated for 48 hrs by MTS assay; format: toxicity, cell-based, Canis lupus familiaris; conditions: dog, mdck, 48 h
Influenza A virus [2] = experiment: Antiviral activity against Influenza A virus A/Puerto Rico/8/34 (H1N1) infected in MDCK cells assessed as inhibition of viral infection preincubated with cells for 1 hrs followed by viral infection and measured after 48 hrs by hemagglutination assay; format: functional, organism-based
[3] = Selectivity index, ratio of CC50 for cytotoxicity against MDCK cells to IC50 for antiviral activity against Influenza A virus A/Puerto Rico/8/34 (H1N1) infected in MDCK cells; format: toxicity, cell-based; conditions: dog, read-out: Ratio CC50/IC50
[4] = as §1; format: toxicity, cell-based, Canis lupus familiaris; conditions: dog, MDCK cells
Influenza A virus [5] = experiment: Antiviral activity against influenza A virus A/California/04/2009 (H1N1) infected in female BALB/c mouse model assessed as inhibition of viral replication in lungs at 50 mg/kg, po pretreated for 4 hrs followed by twice daily compound administration 4 hrs post viral infection and measured on day 4 post infection; format: functional, organism-based; conditions: time 4.0 day
Influenza A virus [6] = experiment: (§2) Antiviral activity against influenza A virus A/California/04/2009 (H1N1) infected in female BALB/c mouse model assessed as survival rate at 50 mg/kg, po pretreated for 4 hrs followed by twice daily compound administration 4 hrs post viral infection and measured on day 11 post infection relative to control; format: functional; conditions: 264 h, time 11 day
Influenza A virus [7] = experiment: as §2, with “reduction in body weight loss” for “survival rate”, “20” for “50”, “infection” for “infection relative to control”; format: functional, organism-based; conditions: time 11.0 day
Influenza A virus [8] = experiment: as §2, with “20” for “50”; format: functional; conditions: 264 h, time 11 day

Chain of Neuraminidase (Influenza A virus (A/Puerto Rico/8/1934(H1N1)), UniProt P03468) (P03468 whole entry): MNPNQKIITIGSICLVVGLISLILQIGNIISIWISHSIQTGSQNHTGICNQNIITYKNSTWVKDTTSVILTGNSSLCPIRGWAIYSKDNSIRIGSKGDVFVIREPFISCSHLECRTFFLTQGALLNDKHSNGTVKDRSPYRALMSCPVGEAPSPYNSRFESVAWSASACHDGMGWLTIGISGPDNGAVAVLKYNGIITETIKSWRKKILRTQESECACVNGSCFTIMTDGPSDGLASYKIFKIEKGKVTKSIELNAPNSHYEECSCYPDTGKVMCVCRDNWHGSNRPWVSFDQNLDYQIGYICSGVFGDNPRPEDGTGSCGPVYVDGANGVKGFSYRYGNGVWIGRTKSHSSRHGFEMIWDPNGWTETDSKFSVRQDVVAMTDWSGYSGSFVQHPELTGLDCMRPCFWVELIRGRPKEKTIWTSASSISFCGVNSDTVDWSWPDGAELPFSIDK

SMILES | pIC50 [1] | further results
COc1ccc(N/C=C2\C(=O)c3ccccc3N2C(C)=O)cc1OC | 4.60 | 
COc1ccc(N/C=C2\C(=O)c3ccccc3N2C(C)=O)cc1 | 7.00 | CC50 (MDCK): 1.81 mM; pIC50 (Influenza A virus [2]): 4.92; selectivity ratio [3]: 151
CCC(=O)N1/C(=C/Nc2ccc(F)c(F)c2)C(=O)c2ccccc21 | 6.52 | 
CC(=O)N1/C(=C/Nc2ccc(Cl)cc2)C(=O)c2ccccc21 | 5.86 | 
CCCCOc1ccc(N/C=C2\C(=O)c3ccccc3N2C(C)=O)cc1 | 6.38 | 
CC(=O)N1/C(=C/Nc2cccc(S(N)(=O)=O)c2)C(=O)c2ccccc21 | 6.19 | 
CC(=O)N1/C(=C/NCc2ccc(F)c(F)c2)C(=O)c2ccccc21 | 4.95 | 
CC(=O)N1/C(=C/Nc2cccc(Oc3ccccc3)c2)C(=O)c2cccnc21 |  | CC50 at 48 h [4]: 540 µM; pIC50 (Influenza A virus [2]): 3.92; selectivity ratio [3]: 5
CCOC(=O)c1cccc(N/C=C2\C(=O)c3ccccc3N2C(C)=O)c1 | 6.55 | 
CC(=O)N1/C(=C/Nc2ccncc2)C(=O)c2ccccc21 | 5.97 | 
CC(=O)N1/C(=C/Nc2ccc(F)cc2)C(=O)c2ccccc21 | 6.47 | 
CCC(=O)N1/C(=C/Nc2ccc(F)cc2)C(=O)c2ccccc21 | 6.37 | 
CC(=O)N1/C(=C/Nc2cc(F)c(F)c(F)c2)C(=O)c2ccccc21 | 6.00 | 
CCOC(=O)c1cccc(N/C=C2\C(=O)c3cccnc3N2C(C)=O)c1 | 5.01 | 
COc1ccc(OC)c(N/C=C2\C(=O)c3ccccc3N2C(C)=O)c1 | 6.00 | 
CCC(=O)N1/C(=C/Nc2cccc(F)c2)C(=O)c2ccccc21 | 6.64 | CC50 (MDCK): 0.095 mM; pIC50 (Influenza A virus [2]): 4.95; selectivity ratio [3]: 8
COc1ccc(N/C=C2\C(=O)c3cc(Cl)ccc3N2C(C)=O)cc1 | 5.27 | 
CC(=O)N1/C(=C/Nc2cccc(Oc3ccccc3)c2)C(=O)c2ccccc21 | 6.30 | 
CC(=O)N1/C(=C/Nc2ccccc2)C(=O)c2ccccc21 | 6.43 | 
CC(=O)N1/C(=C/Nc2ccc(C(F)(F)F)cc2)C(=O)c2ccccc21 | 6.11 | 
COc1ccccc1N/C=C1\C(=O)c2ccccc2N1C(C)=O | 5.97 | 
COc1ccc(N/C=C2/Nc3ccccc3C2=O)cc1 | 5.52 | 
O=C1/C(=C\NCc2ccccc2)Nc2ccccc21 | 4.89 | 
CC(=O)N1/C(=C/Nc2cccc(F)c2)C(=O)c2ccccc21 | 7.52 | Activity (Influenza A virus [5]): Active; CC50 (MDCK): 1.48 mM; pIC50 (Influenza A virus [2]): 4.47; selectivity ratio [3]: 44; survival at 50 mg/kg (Influenza A virus [6]): 30%; Activity (Influenza A virus [7]): Active

SMILES | pIC50 [1] | further results
COc1ccc(N/C=C2\C(=O)c3cc(OC)ccc3N2C(C)=O)cc1 | 5.77 | 
CC(=O)N1/C(=C/Nc2cccc(F)c2)C(=O)c2cccnc21 | 5.85 | 
CC(=O)N1/C(=C/Nc2cccc(C(F)(F)F)c2)C(=O)c2ccccc21 | 6.02 | 
CC(=O)N1/C(=C/Nc2cccc(OC(F)(F)F)c2)C(=O)c2ccccc21 | 6.70 | Activity (Influenza A virus [5]): Active; CC50 (MDCK): 0.105 mM; pIC50 (Influenza A virus [2]): 5.52; selectivity ratio [3]: 35; survival at 50 mg/kg (Influenza A virus [6]): 30%; Activity (Influenza A virus [7]): Active
CC(=O)N1/C(=C/Nc2cc(F)cc(F)c2)C(=O)c2ccccc21 | 6.28 | 
COc1cccc(N/C=C2\C(=O)c3ccccc3N2C(C)=O)c1 | 6.43 | 
COc1cc(N/C=C2\C(=O)c3ccccc3N2C(C)=O)cc(OC)c1OC | 5.57 | 
CCOC(=O)C1=C[C@@H](OC(CC)CC)[C@H](NC(C)=O)[C@@H](N)C1 [OSELTAMIVIR] |  | survival at 20 mg/kg (Influenza A virus [8]): 50%
CC(=O)N1/C(=C/Nc2ccccn2)C(=O)c2ccccc21 | 5.92 | 
COc1ccc(N/C=C2\C(=O)c3cccnc3N2C(C)=O)cc1 | 5.70 | 
CCC(=O)N1/C(=C/Nc2ccc(OC)cc2)C(=O)c2ccccc21 | 6.14 | 
CC(=O)N1/C(=C/Nc2ccc(F)c(F)c2)C(=O)c2ccccc21 | 6.33 | 
CC(=O)N1/C(=C/Nc2ccc(Cc3ccccc3)cc2)C(=O)c2ccccc21 | 7.00 | CC50 (MDCK): 1.74 mM; pIC50 (Influenza A virus [2]): 3.95; selectivity ratio [3]: 16
CC(=O)N1/C(=C/Nc2ccc(Nc3ccccc3)cc2)C(=O)c2ccccc21 | 6.12 | 
CCOc1ccc(N/C=C2\C(=O)c3ccccc3N2C(C)=O)cc1 | 6.21 | 
O=C1/C(=C\Nc2ccccc2)Nc2ccccc21 | 5.27 | 
CCOC(=O)c1cccc(N/C=C2\C(=O)c3cc(OC)ccc3N2C(C)=O)c1 | 5.88 | 
CCOC(=O)c1cccc(N/C=C2\C(=O)c3cc(Cl)ccc3N2C(C)=O)c1 | 5.69 | 
CC(=O)N1/C(=C/Nc2ccc(OC(F)(F)F)cc2)C(=O)c2ccccc21 | 5.29 | 
CC(=O)N1/C(=C/Nc2ccccc2C(F)(F)F)C(=O)c2ccccc21 | 6.24 | 
CC(=O)N1/C(=C/Nc2cccc(Cc3ccccc3)c2)C(=O)c2ccccc21 | 6.70 | 
CC(=O)N1/C(=C/Nc2cccc(F)c2F)C(=O)c2ccccc21 | 6.02 | 
O=C1/C(=C\Nc2ccc(Cl)cc2)Nc2ccccc21 | 5.73 | 
COc1ccc(N/C=C2\C(=O)c3ccccc3N2C)cc1 | 6.00 | 
